Source: US11161819B2, “Substituted tetrahydroisoquinoline compounds useful as GPR120 agonists” (Merck Sharp & Dohme Corp., priority 2016, dated 2021)

target: T1, human GPR120 (Homo sapiens, UniProt Q5NUL3); experiment: Human GPR120 IP1 Assay (inositol phosphate turnover, CisBio IP-One kit); assay type: cell-based; settings: IP1 accumulation in CHO-K1 cells stably expressing the short form of human GPR120; 60 min compound incubation; 4-parameter fit; read-out: hGPR120 EC50
T1 construct: expressed in transfected cells
T1 sequence (Q5NUL3 1-361): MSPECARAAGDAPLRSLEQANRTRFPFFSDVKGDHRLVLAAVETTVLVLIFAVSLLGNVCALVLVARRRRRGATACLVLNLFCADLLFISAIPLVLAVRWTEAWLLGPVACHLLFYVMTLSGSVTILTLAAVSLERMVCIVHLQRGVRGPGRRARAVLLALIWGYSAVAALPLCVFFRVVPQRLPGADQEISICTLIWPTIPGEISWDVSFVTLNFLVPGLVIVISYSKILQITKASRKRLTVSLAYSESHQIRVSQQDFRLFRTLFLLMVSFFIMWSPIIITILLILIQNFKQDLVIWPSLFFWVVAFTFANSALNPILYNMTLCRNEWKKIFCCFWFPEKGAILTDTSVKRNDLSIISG
Text: Human GPR120 IP1 Assay Principle
The binding of small molecule agonists to the G-protein-coupled receptor GPR120 activates phospholipase C, and leads to the generation of inositol 1,4,5-trisphosphate (InsP3 or IP3). IP3 is subsequently de-phosphorylated to IP1, which accumulates in cells and is stable in the presence of lithium chloride.
In the present method, agonist-induced activation of the human GPR120 receptor was monitored by measuring the accumulation of IP1 in CHO-K1 cells that were stably expressing the short form of human GPR120 (Accession #NM_001195755). Following agonist addition, GPR120 activation and subsequent accumulation of IP1 was measured using a homogeneous Time Resolved Fluorescence-based ELISA commercially available from CisBio (IP-one ELISA Kit). The IP-One ELISA was a competitive immunoassay which uses IP1 labeled with […] and a terbium cryptate-labeled anti-IP1 monoclonal antibody. […] The signal loss was then back calculated to IP1 concentration using an IP1 standard curve. Determination of IP1 concentration was a direct measure of GPR120 activation and was used to determine compound potency (EC50).
Generation of GPR120-Expressing Cells:
Human GPR120 stable cell-lines were generated in CHO cells. The expression plasmids were transfected using lipofectamine (Life Technologies) following manufacturer's instructions. Stable cell-lines were generated following drug selection and single cell cloning.
Inositol Phosphate Turnover (IP1) Assay:
The assay was performed in 384-well format. CHO cells stably expressing human GPR120 were plated at […] per well in growth medium (DMEM/F12, 10% fetal calf serum). Cell plates were then incubated 16 hours at 37 degrees in a 5% CO2 incubator. Measurement of Inositol Phosphate Turnover (IP1) was performed using the CisBio IP-One kit (Part number 62IPAPEB). After the 16 hour incubation, the growth media was removed by centrifugation using the BlueWasher (AusWasher GUI Ver. v1.0.1.8) Protocol #21-“Light Dry” and 10 ul of stimulation buffer (prepared as described in the kit) was added to each well. In a separate plate, compounds were diluted in DMSO (200-fold over the final concentration in the assay well) and 50 nl was acoustically transferred to the appropriate well in the assay cell plate. The plates were then incubated for 60 minutes at 37 degrees in a 5% CO2 incubator. 10 ul of detection buffer (also prepared as described in the IP-One kit) was added to each well and the plates were incubated at room temperature for 60 minutes in the dark. The plates were then read in a Perkin Elmer EnVision or equivalent reader able to measure FRET. Fluorescent ratio of emission at 665 and 620 nm was then converted to the IP1 concentration by back calculating from an IP1 standard curve prepared at the time of the assay. The data was normalized to % activity using a reference compound, and the EC50 values were determined using a standard 4-parameter fit.

EC50 [µM]	Structure (SMILES)
2.29	O=C(O)CCc1ccc2c(c1)CCN(c1cc(OC3CCC3)cc(F)c1Cl)C2 [Example 45, 3-{2-[2-chloro-5-(cyclobutyloxy)-3-fluorophenyl]-1,2,3,4-tetrahydro-isoquinolin-6-yl}propanoic acid]
0.091	Cc1ccc(-n2nc(C)c(F)c2N2CCc3cc(CCC(=O)O)ccc3C2)cc1 [Example 47, 3-{2-[4-fluoro-3-methyl-1-(4-methylphenyl)-1H-pyrazol-5-yl]-1,2,3,4-tetrahydroisoquinolin-6-yl} propanoic acid]
0.596	CO[C@H]1C[C@H](Oc2ccc(C#N)c(N3CCc4cc(CCC(=O)O)ccc4C3)c2)C1 [Example 48, 3-(2-{2-cyano-5-[(trans-3-methoxy-cyclobutyl)oxy]phenyl}-1,2,3,4-tetrahydroisoquinolin-6-yl)-propanoic acid]
0.223	CC1c2ccc(CCC(=O)O)cc2CCN1c1cc(OC2CCC2)cc(F)c1F (stereo not shown) [Example 49, 3-{2-[5-(cyclobutyloxy)-2,3-difluorophenyl]-1-methyl-1,2,3,4-tetrahydroisoquinolin-6-yl}-propanoic acid]
0.348	O=C(O)CCc1ccc2c(c1)CCN(Cc1c(-c3ccc(Cl)cc3)nsc1C(F)(F)F)C2 [Example 50, 3-(2-{[3-(4-chlorophenyl)-5-(trifluoromethyl)isothiazol-4-yl]methyl}-1,2,3,4-tetrahydroiso-quinolin-6-yl)propanoic acid]
0.317	O=C(O)CCc1cc(F)c2c(c1)CCN(c1cc(OC(F)(F)F)ccc1F)C2 [Example 51, 3-{8-fluoro-2-[2-fluoro-5-(trifluoromethoxy)phenyl]-1,2,3,4-tetrahydroisoquinolin-6-yl}-propanoic acid]
0.51	CC(Cc1ccc2c(c1)CCN(c1cc(OC(F)(F)F)ccc1F)C2)C(=O)O (stereo not shown) [Example 52]
1.68	O=C(O)CCc1ccc2c(c1)CCN(c1cc(OC3CCC3)cc(Cl)c1F)C2 [Example 54, 3-{2-[3-chloro-5-(cyclobutyloxy)-2-fluorophenyl]-1,2,3,4-tetrahydro-isoquinolin-6-yl}propanoic acid]
0.025	N#Cc1c(F)cc(OC2CCC2)cc1N1CCc2cc(CCC(=O)O)ccc2C1 [Example 55, 3-{2-[2-cyano-5-(cyclobutyloxy)-3-fluorophenyl]-1,2,3,4-tetrahydro-isoquinolin-6-yl}propanoic acid]
0.04	O=C(O)CCc1ccc2c(c1F)CCN(c1cc(C(F)(F)C3CCC3)ccc1F)C2 [Example 56, 3-(2-(5-(cyclobutyldifluoromethyl)-2-fluorophenyl)-5-fluoro-1,2,3,4-tetrahydro-isoquinolin-6-yl)propanoic acid]

Further lines, the compound ahead of its results:

Structure (SMILES)	EC50 [µM]
O=C(O)CCc1ccc2c(c1)CCN(c1cc(OC(F)(F)F)ccc1F)C2 [Example 27, 3-{2-[2-fluoro-5-(trifluoro-methoxy)phenyl]-1,2,3,4-tetrahydro-isoquinolin-6-yl}propanoic acid]	0.061
COc1cc(F)c(N2CCc3cc(CCC(=O)O)ccc3C2)cc1Oc1ccc(C)cn1 [Example 28, 3-(2-{2-fluoro-4-methoxy-5-[(5-methylpyridin-2-yl)oxy]phenyl}-1,2,3,4-tetrahydroisoquinolin-6-yl)propanoic acid]	0.169
O=C(O)CCc1ccc2c(c1)CCN(c1cc3c(C(F)(F)F)noc3cc1F)C2 [Example 29, 3-{2-[6-fluoro-3-(trifluoromethyl)-1,2-benzisoxazol-5-yl]-1,2,3,4-tetrahydroisoquinolin-6-yl}-propanoic acid]	0.171
O=C(O)CCc1cc2c(cc1F)CN(c1cc(OC(F)(F)F)ccc1F)CC2 [Example 30, 3-{7-fluoro-2-[2-fluoro-5-(trifluoromethoxy)phenyl]-1,2,3,4-tetrahydroisoquinolin-6-yl}-propanoic acid]	0.134
COc1cc(F)c(N2CCc3cc(CCC(=O)O)ccc3C2)cc1OC1CCC1 [Example 31, 3-{2-[5-(cyclobutyloxy)-2-fluoro-4-methoxyphenyl]-1,2,3,4-tetrahydroisoquinolin-6-yl}-propanoic acid]	0.182
CC1c2ccc(CCC(=O)O)cc2CCN1c1cc(OC2CCC2)cc(F)c1F (stereo not shown) [Example 32, 3-{2-[5-(cyclobutyloxy)-2,3-difluorophenyl]-1-methyl-1,2,3,4-tetrahydroisoquinolin-6-yl}-propanoic acid]	0.233
O=C(O)CCc1ccc2c(c1)CCN(c1cc(Oc3cnccn3)ccc1F)C2 [Example 33, 3-{2-[2-fluoro-5-(pyrazin-2-yloxy)phenyl]-1,2,3,4-tetrahydroiso-quinolin-6-yl}propanoic acid]	0.192
CO[C@H]1C[C@H](Oc2cc(C#N)c(F)c(N3CCc4cc(CCC(=O)O)ccc4C3)c2)C1 [Example 34, 3-(2-{3-cyano-2-fluoro-5-[(trans-3-methoxycyclobutyl)oxy]phenyl}-1,2,3,4-tetrahydroisoquinolin-6-yl)propanoic acid]	0.184
O=C(O)CCc1ccc2c(c1)CCN(c1cc(Oc3ccc(F)cn3)cc(C(F)F)c1F)C2 [Example 35, 3-(2-{3-(difluoromethyl)-2-fluoro-5-[(5-fluoropyridin-2-yl)oxy]phenyl}-1,2,3,4-tetrahydroisoquinolin-6-yl) propanoic acid]	0.312
CC1c2ccc(CCC(=O)O)cc2CCN1c1cc(OC2CCC2)ccc1F (stereo not shown) [Example 36, 3-{2-[5-(cyclobutyloxy)-2-fluorophenyl]-1-methyl-1,2,3,4-tetrahydroisoquinolin-6-yl}propanoic acid]	0.348
CC1c2ccc(CCC(=O)O)cc2CCN1c1cc(OC2CCC2)cc(F)c1Cl (stereo not shown) [Example 37, 3-{2-[2-chloro-5-(cyclobutyloxy)-3-fluorophenyl]-1-methyl-1,2,3,4-tetrahydroisoquinolin-6-yl}-propanoic acid]	0.377
O=C(O)CCc1ccc2c(c1)CCN(c1cccc(SC3CCC3)n1)C2 [Example 38, 3-{2-[6-(cyclobutylsulfanyl)pyridin-2-yl]-1,2,3,4-tetrahydroiso-quinolin-6-yl}propanoic acid]	0.405
CC1c2ccc(CCC(=O)O)cc2CCN1c1cc(OC2CCC2)ccc1F (stereo not shown) [Example 39, 3-{2-[5-(cyclobutyloxy)-2-fluorophenyl]-1-methyl-1,2,3,4-tetra-hydroisoquinolin-6-yl}propanoic acid]	0.417
O=C(O)CCc1ccc2c(c1)CCN(c1cc(Cl)c(C(F)(F)F)c(Cl)c1)C2 [Example 40, 3-{2-[3,5-dichloro-4-(trifluoro-methyl)phenyl]-1,2,3,4-tetrahydro-isoquinolin-6-yl}propanoic acid]	0.463
O=C(O)CCc1ccc2c(c1)CCN(c1cncc(OC3CCC3)n1)C2 [Example 41, 3-{2-[6-(cyclobutyloxy)pyrazin-2-yl]-1,2,3,4-tetrahydroiso-quinolin-6-yl}propanoic acid]	0.569
COc1cc(C#N)c(N2CCc3cc(CCC(=O)O)ccc3C2)cc1OC1CCC1 [Example 42, 3-{2-[2-cyano-5-(cyclobutyloxy)-4-methoxyphenyl]-1,2,3,4-tetra-hydroisoquinolin-6-yl}propanoic acid]	0.798
COc1ccc(-n2nc(C)c(C#N)c2N2CCc3cc(CCC(=O)O)ccc3C2)cc1 [Example 43, 3-{2-[4-cyano-1-(4-methoxy-phenyl)-3-methyl-1H-pyrazol-5-yl]-1,2,3,4-tetrahydroisoquinolin-6-yl}propanoic acid]	1.47
N#Cc1c(F)cc(OC(F)(F)F)cc1N1CCc2cc(CCC(=O)O)ccc2C1 [Example 44, 3-{2-[2-cyano-3-fluoro-5-(trifluoro-methoxy)phenyl]-1,2,3,4-tetra-hydroisoquinolin-6-yl}propanoic acid]	2.36
